Assay results from publication PMC12591484 (PLOS One, 2025).

Biological target: T1, α1β3γ2S301C GABAA receptors (Homo sapiens, UniProt P14867+P18507+P28472, S340C)
T1 construct: expressed in transfected cells; host or cells: Xenopus oocytes injected with capped mRNAs mixed 1α:1β:5γ
T1 sequence (P14867 28-456): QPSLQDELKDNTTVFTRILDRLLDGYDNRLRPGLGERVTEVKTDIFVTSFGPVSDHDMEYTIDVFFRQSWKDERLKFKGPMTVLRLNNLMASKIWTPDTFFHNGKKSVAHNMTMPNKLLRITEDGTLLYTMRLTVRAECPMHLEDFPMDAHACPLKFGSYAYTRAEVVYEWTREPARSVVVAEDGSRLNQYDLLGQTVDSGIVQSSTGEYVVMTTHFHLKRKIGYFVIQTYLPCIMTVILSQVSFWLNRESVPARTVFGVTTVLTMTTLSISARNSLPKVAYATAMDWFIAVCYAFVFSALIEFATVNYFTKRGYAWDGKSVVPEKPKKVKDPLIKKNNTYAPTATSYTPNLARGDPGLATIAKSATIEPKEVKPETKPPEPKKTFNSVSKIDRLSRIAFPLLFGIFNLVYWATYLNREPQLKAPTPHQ
T1 sequence (P28472 26-473): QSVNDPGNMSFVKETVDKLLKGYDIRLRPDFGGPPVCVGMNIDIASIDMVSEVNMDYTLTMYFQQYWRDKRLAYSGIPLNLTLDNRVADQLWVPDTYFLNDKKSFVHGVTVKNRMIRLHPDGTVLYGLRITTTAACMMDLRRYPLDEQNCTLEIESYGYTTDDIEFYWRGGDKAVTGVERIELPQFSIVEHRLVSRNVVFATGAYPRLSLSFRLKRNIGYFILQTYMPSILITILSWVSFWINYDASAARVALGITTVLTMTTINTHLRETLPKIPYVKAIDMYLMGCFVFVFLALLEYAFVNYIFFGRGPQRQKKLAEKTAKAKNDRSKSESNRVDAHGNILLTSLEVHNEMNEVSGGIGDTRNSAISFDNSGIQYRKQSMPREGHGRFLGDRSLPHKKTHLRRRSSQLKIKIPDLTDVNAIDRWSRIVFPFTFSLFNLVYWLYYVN
T1 sequence (P18507 40-475 S340C): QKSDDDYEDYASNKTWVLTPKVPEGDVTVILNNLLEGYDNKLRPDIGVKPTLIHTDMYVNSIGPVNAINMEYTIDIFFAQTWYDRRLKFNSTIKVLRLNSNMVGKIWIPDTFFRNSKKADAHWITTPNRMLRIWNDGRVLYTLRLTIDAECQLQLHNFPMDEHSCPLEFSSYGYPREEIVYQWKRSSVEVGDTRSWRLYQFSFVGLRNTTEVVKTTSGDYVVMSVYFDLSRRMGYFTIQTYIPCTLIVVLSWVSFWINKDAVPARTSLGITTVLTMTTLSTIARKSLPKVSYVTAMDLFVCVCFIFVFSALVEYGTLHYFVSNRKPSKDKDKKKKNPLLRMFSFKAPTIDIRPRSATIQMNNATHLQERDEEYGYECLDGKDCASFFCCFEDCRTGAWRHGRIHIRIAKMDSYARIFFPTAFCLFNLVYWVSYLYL
Test: Drug protection from pCMBS modification (SCAMP)
Assay type: cell-based
Conditions: γ2S301C (γ+); pCMBS 100 µM x 90 s; […] etomidate, 8 µM R-mTFD-MPAB or 10 µM pTFD-di-iPr-BnOH; n = 5
Procedure: Experiments were performed in ND-96 buffer at room temperature (20–22°C). Oocytes were placed in a low-volume (30µl) flow chamber and impaled with borosilicate microelectrodes filled with 3M KCl (resistance 0.5–3 MΩ) and voltage-clamped at −50 mV (model OC-725C; Warner Instruments, Hamden, CT, USA). Superfusate solutions in ND-96 were delivered at 2 ml/min from glass syringe reservoirs via computer-controlled valves (VC-8; Warner Instruments), a micro-manifold (ALA-VM8; ALA Scientific Instruments, Farmingdale, NY, USA), and PTFE tubing. Currents were digitized at 200 Hz on a computer running ClampEx v8.0 software (Molecular Devices, San Jose, CA, USA). Digitized traces were filtered with a 10-Hz low-pass Bessel function, leak corrected and analyzed for peak amplitude off-line using Clampfit v8 software (Molecular Devices).
Drug protection from pCMBS modification was assessed under pCMBS exposure conditions that produced approximately half of the maximal modification ratio for each mutant receptor, and a least a value of 3. This approach balanced the magnitude of functional modification signals (smaller with less pCMBS exposure) against the challenge of using a reversibly bound ligand to competitively block an irreversible covalent cysteine-modifying reaction. […] Each oocyte was used in a single SCAMP experiment. […] Etomidate was used as a positive control for anesthetic protection in α1M236C and β3M286C mutants and as a negative control in α1S270C, α1A291C, β3L231C, γ2S301C, γ2I242C, and γ2L246C mutants. R-mTFD-MPAB was used as a positive control in α1S270C, α1A291C, β3L231C, and γ2LS301C mutants and as a negative control in α1M236C and β3M286C mutants. For each cysteine mutant and protective drug combination, five oocytes were studied.
Non-linear least squares fits and statistical analyses were performed in Prism 10.4.0. (GraphPad Software, San Diego, CA, USA). […] Protection (steric inhibition of pCMBS modification) was inferred when anesthetics produced significant reductions in modification ratios relative to control (no anesthetic) values. The statistical significance threshold was p < 0.05.

**Q.** Which “protection from pCMBS modification (significant reduction of modification ratio vs control, p < 0.05)” value does the source give for `C=CCC1(c2cccc(C3(C(F)(F)F)N=N3)c2)C(=O)NC(=O)N(C)C1=O` (stereo not shown) [R-mTFD-MPAB, R-5-allyl-1-methyl-5-(m-trifluoromethyl-diazirynylphenyl) barbituric acid] here?
**A.** protection was inferred
